# Measurements published in ChEMBL document CHEMBL5608163, “Structure modification of anoplin for fighting resistant bacteria” (Eur J Med Chem, 2024).
# Square brackets hold non-standard residues; d marks the D form. Peptide text beside a SMILES is read from it. * marks the point of attachment. Heptadecanoyl = CCCCCCCCCCCCCCCCC(=O)*; 2Nal = N[C@@H](Cc1ccc2ccccc2c1)C(=O)O; Cha = N[C@@H](CC1CCCCC1)C(=O)O
# Key:
# Escherichia coli [1] = assay: Antibacterial activity against multi-drug resistant Escherichia coli clinical isolate 850 assessed as reduction in bacterial growth measured after 18 to 24 hrs by CLSI protocol-based Mueller-Hinton broth dilution method; type: functional; details: time 18-24 hrs
# Pseudomonas aeruginosa [2] = assay: Antibacterial activity against multi-drug resistant Pseudomonas aeruginosa clinical isolate 119 assessed as reduction in bacterial growth measured after 18 to 24 hrs by CLSI protocol-based Mueller-Hinton broth dilution method; type: functional; details: time 18-24 hrs
# Bacillus subtilis = assay: Antibacterial activity against Bacillus subtilis ATCC 23857 assessed as reduction in bacterial growth measured after 18 to 24 hrs by CLSI protocol-based Mueller-Hinton broth dilution method; type: functional; details: time 18-24 hrs
# Staphylococcus aureus [3] = assay: Antibacterial activity against Staphylococcus aureus ATCC 25923 assessed as reduction in bacterial growth measured after 18 to 24 hrs by CLSI protocol-based Mueller-Hinton broth dilution method; type: functional; details: time 18-24 hrs
# Klebsiella pneumoniae = assay: Antibacterial activity against Klebsiella pneumoniae ATCC 700603 assessed as reduction in bacterial growth measured after 18 to 24 hrs by CLSI protocol-based Mueller-Hinton broth dilution method; type: functional; details: time 18-24 hrs
# Acinetobacter baumannii = assay: Antibacterial activity against multi-drug resistant Acinetobacter baumannii clinical isolate 9840 assessed as reduction in bacterial growth measured after 18 to 24 hrs by CLSI protocol-based Mueller-Hinton broth dilution method; type: functional; details: time 18-24 hrs
# Escherichia coli [4] = assay: Antibacterial activity against Escherichia coli ATCC 25922 assessed as reduction in bacterial growth incubated for 48 hrs by Mueller-Hinton broth based microdilution method; type: functional
# Staphylococcus aureus [5] = assay: Antibacterial activity against Staphylococcus aureus ATCC 25923 assessed as reduction in bacterial growth incubated for 48 hrs by Mueller-Hinton broth based microdilution method; type: functional
# Escherichia coli [6] = assay: Antibacterial activity against Escherichia coli ATCC 25922 assessed as reduction in bacterial growth; type: functional
# [7] = Hemolytic activity in human RBC; type: toxicity, cell-based, Erythrocyte; details: red blood cells
# Staphylococcus aureus [8] = assay: Antibacterial activity against Staphylococcus aureus ATCC 29213 assessed as bacterial growth inhibition measured after 18 hrs by CLSI protocol based two-fold serial microdilution method; type: functional
# Escherichia coli [9] = assay: Antibacterial activity against Escherichia coli ATCC 25922 assessed as reduction in bacterial growth incubated for 18 to 24 hrs by broth microdilution method; type: functional; details: time 18-24 hrs
# Staphylococcus aureus [10] = assay: Antibacterial activity against methicillin-resistant Staphylococcus aureus ATCC 33591 assessed as reduction in bacterial growth incubated for 16 to 24 hrs by agar dilution method; type: functional; details: time 16-24 hrs
# Pseudomonas aeruginosa [11] = assay: Antibacterial activity against Pseudomonas aeruginosa ATCC 15442 assessed as reduction in bacterial cell growth incubated for 18 to 24 hrs by two fold serial microdilution method; type: functional; details: time 18-24 hrs
# Enterococcus faecium [12] = assay: Antibacterial activity against vancomycin resistant Enterococcus faecium NCTC 12204 assessed as reduction in bacterial growth by microdilution broth method; type: functional
# [13] = Hemolytic activity against Red blood cells (unknown origin) incubated for 1 hr by spectrophotometric analysis; type: toxicity, cell-based, Erythrocyte
# Enterococcus faecium [14] = assay: Antibacterial activity against Vancomycin resistant Enterococcus faecium ATCC 700221 assessed as inhibition of bacterial growth incubated for 16 to 20 hrs by broth micro-dilution method; type: functional; details: time 16-20 hrs
# Staphylococcus aureus [15] = assay: Antibacterial activity against methicillin resistant Staphylococcus aureus ATCC 33591 assessed as inhibition of bacterial growth incubated for 16 to 20 hrs by broth micro-dilution method; type: functional; details: time 16-20 hrs
# Escherichia coli [16] = assay: Antibacterial activity against Escherichia coli ATCC 25922 assessed as reduction in bacterial growth incubated for 18 to 20 hrs by Mueller Hinton broth dilution method; type: functional; details: time 18-20 hrs
smiles,measurement,setting,value
CC[C@H](C)[C@H](NC(=O)[C@H](CCCNC(=N)N)NC(=O)[C@H](CCCCN)NC(=O)[C@@H](CC(C)C)NC(=O)[C@H](CC(C)C)NC(=O)CNC(C)=O)C(=O)N[C@@H](CCCCN)C(=O)N[C@H](C(=O)N[C@H](CC(C)C)C(=O)N[C@H](CC(C)C)C(=O)NC(Cc1cn(CCCC[C@H](NC(C)=O)C(=O)NCC(=O)N[C@@H](CC(C)C)C(=O)N[C@@H](CC(C)C)C(=O)N[C@H](CCCCN)C(=O)N[C@@H](CCCNC(=N)N)C(=O)N[C@H](C(=O)N[C@H](CCCCN)C(=O)N[C@H](C(=O)N[C@@H](CC(C)C)C(=O)N[C@@H](CC(C)C)C(N)=O)[C@@H](C)O)[C@@H](C)CC)nn1)C(N)=O)[C@@H](C)O (stereo partly specified),MIC,Escherichia coli [1],4 µM
same,MIC,Pseudomonas aeruginosa [2],16 µM
same,MIC,Bacillus subtilis,2 µM
same,MIC,Staphylococcus aureus [3],32 µM
same,MIC,Klebsiella pneumoniae,8 µM
same,MIC,Acinetobacter baumannii,2 µM
CCCCCCCCCCCCCCCCC(=O)NCC(=O)N[C@@H](CC(C)C)C(=O)N[C@@H](CC(C)C)C(=O)N[C@@H](CCCCN)C(=O)N[C@@H](CCCNC(=N)N)C(=O)N[C@H](C(=O)N[C@@H](CCCCN)C(=O)N[C@H](C(=O)N[C@@H](CC(C)C)C(=O)N[C@@H](CC(C)C)C(N)=O)[C@@H](C)O)[C@@H](C)CC (Heptadecanoyl-GLLKRIKTLL-NH2),MIC,Escherichia coli [4],2.34 µM
same,MIC,Staphylococcus aureus [5],4.67 µM
CC[C@H](C)[C@H](NC(=O)[C@H](CCCNC(=N)N)NC(=O)[C@@H](CCCCN)NC(=O)[C@H](CC(C)C)NC(=O)[C@H](CC(C)C)NC(=O)CNC(C)=O)C(=O)N[C@H](CCCCN)C(=O)N[C@H](C(=O)N[C@@H](CC(C)C)C(=O)N[C@@H](CC(C)C)C(=O)NC(Cc1cn(CCCC[C@H](NC(=O)[C@H](CC(C)C)NC(=O)[C@H](CC(C)C)NC(=O)[C@@H](NC(=O)[C@@H](CCCCN)NC(=O)[C@@H](NC(=O)[C@@H](CCCNC(=N)N)NC(=O)[C@H](CCCCN)NC(=O)[C@H](CC(C)C)NC(=O)[C@H](CC(C)C)NC(=O)CNC(C)=O)[C@@H](C)CC)[C@@H](C)O)C(N)=O)nn1)C(N)=O)[C@@H](C)O (stereo partly specified),MIC,Escherichia coli [1],16 µM
same,MIC,Pseudomonas aeruginosa [2],32 µM
same,MIC,Bacillus subtilis,64 µM
same,MIC,Staphylococcus aureus [3],64 µM
same,MIC,Klebsiella pneumoniae,64 µM
same,MIC,Acinetobacter baumannii,4 µM
CC[C@H](C)[C@H](NC(=O)[C@@H](NC(=O)[C@H](CCCCN)NC(=O)[C@H](CC(C)C)NC(=O)[C@H](CC(C)C)NC(=O)CN)C(C)C)C(=O)N[C@@H](CCCCN)C(=O)N[C@H](C(=O)N[C@@H](CC(C)C)C(=O)N[C@@H](CC(C)C)C(N)=O)[C@@H](C)O (H-GLLKVIKTLL-NH2),MIC,Escherichia coli [6],2.7 µM
same,HC50,[7],54.7 µM
same,MIC,Staphylococcus aureus [8],2.7 µM
CC(C)C[C@H](NC(=O)CN)C(=O)N[C@@H](CC(C)C)C(=O)N[C@@H](CCCCN)C(=O)N[C@@H](CCCCN)C(=O)N[C@@H](Cc1ccc2ccccc2c1)C(=O)N[C@@H](CCCCN)C(=O)N[C@H](C(=O)N[C@@H](CC(C)C)C(=O)N[C@@H](CC1CCCCC1)C(N)=O)[C@@H](C)O (H-GLLKK[2Nal]KTL[Cha]-NH2),MIC,Escherichia coli [9],9.5 µM
same,MIC,Staphylococcus aureus [10],9.5 µM
same,MIC,Pseudomonas aeruginosa [11],6.6 µM
same,MIC,Enterococcus faecium [12],4.6 µM
same,HC50,[7],26.6 µM
same,HC50 at 1 h,[13],26.6 µM
CC[C@H](C)[C@H](NC(=O)[C@H](CCCCN)NC(=O)[C@H](CCCCN)NC(=O)[C@H](CC(C)C)NC(=O)[C@H](CC1CCCCC1)NC(=O)CN)C(=O)N[C@@H](CCCCN)C(=O)N[C@@H](CCCCN)C(=O)N[C@@H](CC(C)C)C(=O)N[C@@H](CC1CCCCC1)C(N)=O (H-G[Cha]LKKIKKL[Cha]-NH2),MIC,Escherichia coli [9],4.6 µM
same,MIC,Staphylococcus aureus [10],3.2 µM
same,MIC,Pseudomonas aeruginosa [11],3.2 µM
same,MIC,Enterococcus faecium [12],3.2 µM
same,HC50,[7],0.5 µM
same,HC50 at 1 h,[13],0.5 µM
CC[C@H](C)[C@H](NC(=O)[C@H](CC(C)C)NC(=O)[C@H](CCCCN)NC(=O)[C@H](CC(C)C)NC(=O)[C@H](CC(C)C)NC(=O)CN)C(=O)N[C@@H](CCCCN)C(=O)N[C@H](C(=O)N[C@@H](CC(C)C)C(=O)N[C@@H](CC(C)C)C(N)=O)[C@@H](C)O (H-GLLKLIKTLL-NH2),MIC,Escherichia coli [6],1.8 µM
same,HC50,[7],11.7 µM
same,MIC,Staphylococcus aureus [8],1.8 µM
CC[C@H](C)[C@H](NC(=O)[C@H](CCCCN)NC(=O)[C@H](CC(C)C)NC(=O)[C@H](CC(C)C)NC(=O)CN)C(=O)N[C@H](C(=O)N[C@@H](CCCCN)C(=O)N[C@H](C(=O)N[C@@H](CC(C)C)C(=O)N[C@@H](CC(C)C)C(N)=O)[C@@H](C)O)[C@@H](C)CC (H-GLLKIIKTLL-NH2),MIC,Escherichia coli [6],1.8 µM
same,HC50,[7],26.1 µM
same,MIC,Staphylococcus aureus [8],1.8 µM
CC(C)C[C@H](NC(=O)[C@H](CC(C)C)NC(=O)[C@@H](NC(=O)[C@H](CCCCN)NC(=O)[C@H](Cc1ccc2ccccc2c1)NC(=O)[C@H](CCCCN)NC(=O)[C@H](CCCCN)NC(=O)[C@H](CC(C)C)NC(=O)[C@H](CC1CCCCC1)NC(=O)CN)[C@@H](C)O)C(N)=O (H-G[Cha]LKK[2Nal]KTLL-NH2),MIC,Escherichia coli [9],9.5 µM
same,MIC,Staphylococcus aureus [10],28.4 µM
same,MIC,Pseudomonas aeruginosa [11],9.5 µM
same,MIC,Enterococcus faecium [12],9.5 µM
same,HC50,[7],15.3 µM
same,HC50 at 1 h,[13],15.3 µM
CC[C@H](C)[C@H](NC(=O)[C@H](CCCNC(=N)N)NC(=O)[C@@H](CCCCN)NC(=O)[C@H](CC(C)C)NC(=O)[C@H](CC(C)C)NC(=O)CNC(C)=O)C(=O)N[C@H](CCCCN)C(=O)N[C@H](C(=O)N[C@@H](CC(C)C)C(=O)N[C@@H](CC(C)C)C(=O)NC(Cc1cn(CCCC[C@H](NC(C)=O)C(=O)NCC(=O)N[C@@H](CC(C)C)C(=O)N[C@@H](CC(C)C)C(=O)N[C@@H](CCCCN)C(=O)N[C@H](CCCNC(=N)N)C(=O)N[C@H](C(=O)N[C@H](CCCCN)C(=O)N[C@H](C(=O)N[C@@H](CC(C)C)C(=O)N[C@@H](CC(C)C)C(N)=O)[C@@H](C)O)[C@@H](C)CC)nn1)C(N)=O)[C@@H](C)O (stereo partly specified),MIC,Escherichia coli [1],16 µM
same,MIC,Pseudomonas aeruginosa [2],16 µM
same,MIC,Bacillus subtilis,4 µM
same,MIC,Staphylococcus aureus [3],128 µM
same,MIC,Klebsiella pneumoniae,16 µM
same,MIC,Acinetobacter baumannii,8 µM
CC[C@H](C)[C@H](NC(=O)[C@H](Cc1ccccc1)NC(=O)[C@H](CCCCN)NC(=O)[C@H](CC(C)C)NC(=O)[C@H](CC(C)C)NC(=O)CN)C(=O)N[C@@H](CCCCN)C(=O)N[C@H](C(=O)N[C@@H](CC(C)C)C(=O)N[C@@H](CC(C)C)C(N)=O)[C@@H](C)O (H-GLLKFIKTLL-NH2),MIC,Escherichia coli [6],1.8 µM
same,HC50,[7],67.3 µM
same,MIC,Staphylococcus aureus [8],1.8 µM
CC(C)C[C@H](NC(=O)CN)C(=O)N[C@@H](CC(C)C)C(=O)N[C@@H](CCCCN)C(=O)N[C@@H](CCCCN)C(=O)N[C@@H](Cc1ccc2ccccc2c1)C(=O)N[C@@H](CCCCN)C(=O)N[C@@H](CCCCN)C(=O)N[C@@H](CC(C)C)C(=O)N[C@@H](CC1CCCCC1)C(N)=O (H-GLLKK[2Nal]KKL[Cha]-NH2),MIC,Enterococcus faecium [14],3.2 µM
same,MIC,Staphylococcus aureus [15],9.5 µM
same,MIC,Escherichia coli [16],16 µM
CC[C@H](C)[C@H](NC(=O)[C@H](CCCNC(=N)N)NC(=O)[C@H](CCCCN)NC(=O)[C@@H](CC(C)C)NC(=O)[C@H](CC(C)C)NC(=O)CNC(C)=O)C(=O)N[C@@H](CCCCN)C(=O)N[C@H](C(=O)N[C@H](CC(C)C)C(=O)N[C@H](CC(C)C)C(=O)NC(Cc1cn(CCCC[C@H](NC(=O)[C@H](CC(C)C)NC(=O)[C@H](CC(C)C)NC(=O)[C@@H](NC(=O)[C@@H](CCCCN)NC(=O)[C@@H](NC(=O)[C@H](CCCNC(=N)N)NC(=O)[C@@H](CCCCN)NC(=O)[C@H](CC(C)C)NC(=O)[C@H](CC(C)C)NC(=O)CNC(C)=O)[C@@H](C)CC)[C@@H](C)O)C(N)=O)nn1)C(N)=O)[C@@H](C)O (stereo partly specified),MIC,Escherichia coli [1],4 µM
same,MIC,Pseudomonas aeruginosa [2],16 µM
same,MIC,Bacillus subtilis,2 µM
same,MIC,Staphylococcus aureus [3],32 µM
same,MIC,Klebsiella pneumoniae,16 µM
same,MIC,Acinetobacter baumannii,2 µM
CC[C@@H](C)[C@@H](NC(=O)[C@H](CCCNC(=N)N)NC(=O)[C@H](CCCCN)NC(=O)[C@H](CC(C)C)NC(=O)[C@H](CC1CCCCC1)NC(=O)CN)C(=O)N[C@@H](CCCCN)C(=O)N[C@H](C(=O)N[C@@H](CC(C)C)C(=O)N[C@@H](CC1CCCCC1)C(N)=O)[C@@H](C)O,MIC,Enterococcus faecium [14],56.8 µM
same,MIC,Staphylococcus aureus [15],56.8 µM
